Target: T1, GCS (Canis lupus familiaris, UniProt A0A8I3MXG6)
T1 sequence (A0A8I3MXG6 1-394): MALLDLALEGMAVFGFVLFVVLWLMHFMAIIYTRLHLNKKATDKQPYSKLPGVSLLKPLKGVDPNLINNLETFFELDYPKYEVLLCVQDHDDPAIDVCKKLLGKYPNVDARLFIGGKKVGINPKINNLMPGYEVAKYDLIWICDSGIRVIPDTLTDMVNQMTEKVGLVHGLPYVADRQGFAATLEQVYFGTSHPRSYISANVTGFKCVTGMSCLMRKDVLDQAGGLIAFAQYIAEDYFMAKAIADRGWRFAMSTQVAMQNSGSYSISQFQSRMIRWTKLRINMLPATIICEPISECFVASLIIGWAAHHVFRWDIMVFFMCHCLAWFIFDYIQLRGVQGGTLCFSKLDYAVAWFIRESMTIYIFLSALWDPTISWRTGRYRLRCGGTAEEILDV
Assay: Assay 1: GCS Enzymatic Assay (MDCK cell lysate, C6-NBD-Ceramide, LC/MS)
Type: biochemical, canine
Conditions: Table 2; for IC50: data without asterisk, read-out: IC50 (nM) generated from Assay 1; for % inhibition generated from Assay 1: data marked by *
How it was run: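 LC/MS/MS measurement of glucosylceramide and NBD-ceramide after a 1 h, 37 °C reaction with 100 μM UDP-glucose and 10 μM C6-NBD-ceramide gave IC50s or percent inhibition.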

Row | IC50 [nM] | SMILES | % inhibition generated from Assay 1
1 | < 50 | O=C(N[C@H](CN1CCCC1)[C@H](O)c1ccc(OC2CC2)c(Cl)c1)C(F)(F)CCc1ccc2c(c1)CCCC2 [Compound 166, N-((1R,2R)-1-(3-chloro-4-cyclopropoxyphenyl)-1-hydroxy-3-(pyrrolidin-1-yl)propan-2-yl)-2,2-difluoro-4-(5,6,7,8-tetrahydronaphthalen-2-yl)butanamide] | –
2 | < 50 | O=C(N[C@H](CN1CCCC1)[C@H](O)c1cc(F)c2c(c1)OCCO2)C(F)(F)CCc1ccc2c(c1)CCCC2 [Compound 167, 2,2-difluoro-N-((1R,2R)-1-(8-fluoro-2,3-dihydrobenzo[b][1,4]dioxin-6-yl)-1-hydroxy-3-(pyrrolidin-1-yl)propan-2-yl)-4-(5,6,7,8-tetrahydronaphthalen-2-yl)butanamide] | –
3 | < 50 | O=C(N[C@H](CN1CCC1)[C@H](O)c1ccc(OC2CC2)c(Cl)c1)C(F)(F)CCc1ccc2ccccc2c1 [Compound 171, N-((1R,2R)-3-(azetidin-1-yl)-1-(3-chloro-4-cyclopropoxyphenyl)-1-hydroxypropan-2-yl)-2,2-difluoro-4-(naphthalen-2-yl)butanamide] | –
4 | < 50 | O=C(N[C@H](CN1CCCC1)[C@H](O)c1ccc(OC2CC2)c(Cl)c1)C(=O)c1ccc2cc(Cl)ccc2c1 [Compound 172, N-((1R,2R)-1-(3-chloro-4-cyclopropoxyphenyl)-1-hydroxy-3-(pyrrolidin-1-yl)propan-2-yl)-2-(6-chloronaphthalen-2-yl)-2-oxoacetamide] | –
5 | < 50 | O=C(N[C@H](CN1CCCC1)[C@H](O)c1ccc(OC2CC2)c(Cl)c1)/C(=N/O)c1ccc2cc(Cl)ccc2c1 [Compound 173, (E)-N-((1R,2R)-1-(3-chloro-4-cyclopropoxyphenyl)-1-hydroxy-3-(pyrrolidin-1-yl)propan-2-yl)-2-(6-chloronaphthalen-2-yl)-2-(hydroxyimino)acetamide] | –
6 | < 50 | O=C(N[C@H](CN1CCCC1)[C@H](O)c1ccc2c(c1)OCCO2)C(=O)c1ccc(-c2ccc(F)cc2)s1 [Compound 174, N-((1R,2R)-1-(2,3-dihydrobenzo[b][1,4]dioxin-6-yl)-1-hydroxy-3-(pyrrolidin-1-yl)propan-2-yl)-2-(5-(4-fluorophenyl)thiophen-2-yl)-2-oxoacetamide] | –
7 | < 50 | O=C(N[C@H](CN1CCCC1)[C@H](O)c1ccc(OC2CC2)c(Cl)c1)C(=O)c1ccc(-c2ccc(F)cn2)cc1 [Compound 175] | –
8 | < 50 | O=C(N[C@H](CN1CCCC1)[C@H](O)c1cc(F)c2c(c1)OCCO2)C(=O)c1ccc(-c2ccc(F)cn2)cc1 [Compound 176, N-((1R,2R)-1-(8-fluoro-2,3-dihydrobenzo[b][1,4]dioxin-6-yl)-1-hydroxy-3-(pyrrolidin-1-yl)propan-2-yl)-2-(4-(5-fluoropyridin-2-yl)phenyl)-2-oxoacetamide] | –
9 | < 50 | O=C(N[C@H](CN1CCCC1)[C@H](O)c1ccc(OC2CCOCC2)c(Cl)c1)/C(=N/O)c1ccc(-c2ccc(F)cc2)cc1 [Compound 177, (E)-N-((1R,2R)-1-(3-chloro-4-((tetrahydro-2H-pyran-4-yl)oxy)phenyl)-1-hydroxy-3-(pyrrolidin-1-yl)propan-2-yl)-2-(4′-fluoro-[1,1′-biphenyl]-4-yl)-2-(hydroxyimino)acetamide] | –

Further lines, the compound ahead of its results:

Row | SMILES | IC50 [nM] | % inhibition generated from Assay 1
10 | O=C(N[C@H](CN1CCCC1)[C@H](O)c1ccc(OC2CCOCC2)c(Cl)c1)C(F)(F)c1ccc(-c2ccc(F)cc2)cc1 [Compound 163, N-((1R,2R)-1-(3-chloro-4-((tetrahydro-2H-pyran-4-yl)oxy)phenyl)-1-hydroxy-3-(pyrrolidin-1-yl)propan-2-yl)-2,2-difluoro-2-(4′-fluoro-[1,1′-biphenyl]-4-yl)acetamide] | < 50 | –
11 | O=C(N[C@H](CN1CCC1)[C@H](O)c1ccc(OC2CC2)c(Cl)c1)/C(CCc1ccc2ccccc2c1)=N/O [Compound 164, (E)-N-((1R,2R)-3-(azetidin-1-yl)-1-(3-chloro-4-cyclopropoxyphenyl)-1-hydroxypropan-2-yl)-2-(hydroxyimino)-4-(naphthalen-2-yl)butanamide] | – | A* (the compound had a % inhibition of a percent inhibition of greater than or equal to about 50%)
12 | O=C(N[C@H](CN1CCCC1)[C@H](O)c1ccc2c(c1)OCCO2)C(F)(F)CCc1ccc2c(c1)CCCC2 [Compound 165, N-((1R,2R)-1-(2,3-dihydrobenzo[b][1,4]dioxin-6-yl)-1-hydroxy-3-(pyrrolidin-1-yl)propan-2-yl)-2,2-difluoro-4-(5,6,7,8-tetrahydronaphthalen-2-yl)butanamide] | < 50 | –
13 | CC(C)(O)COc1ccc([C@H](O)[C@@H](CN2CCCC2)NC(=O)C(F)(F)c2cc3cc(Cl)ccc3o2)cc1Cl [Compound 168, N-((1S,2R)-1-(3-chloro-4-(2-hydroxy-2-methylpropoxy)phenyl)-1-hydroxy-3-(pyrrolidin-1-yl)propan-2-yl)-2-(5-chlorobenzofuran-2-yl)-2,2-difluoroacetamide] | – | B* (the compound had a % inhibition of greater than or equal to about 3% but less than about 50%)
14 | O=C(N[C@H](CN1CCC1)[C@H](O)c1ccc(OC2CC2)c(Cl)c1)/C(=N/O)c1cc2cc(Cl)ccc2o1 [Compound 169, (E)-N-((1R,2R)-3-(azetidin-1-yl)-1-(3-chloro-4-cyclopropoxyphenyl)-1-hydroxypropan-2-yl)-2-(5-chlorobenzofuran-2-yl)-2-(hydroxyimino)acetamide] | – | A* (the compound had a % inhibition of a percent inhibition of greater than or equal to about 50%)
15 | O=C(CCc1ccc2ccccc2c1)C(=O)N[C@H](CN1CCC1)[C@H](O)c1ccc(OC2CC2)c(Cl)c1 [Compound 170, N-((1R,2R)-3-(azetidin-1-yl)-1-(3-chloro-4-cyclopropoxyphenyl)-1-hydroxypropan-2-yl)-4-(naphthalen-2-yl)-2-oxobutanamide] | – | B* (the compound had a % inhibition of greater than or equal to about 3% but less than about 50%)
16 | O=C(N[C@H](CN1CCCC1)[C@H](O)c1ccc(OC2CC2)c(Cl)c1)C(F)(F)c1ccc(-c2ccc(F)cn2)cc1 [Compound 178, N-((1R,2R)-1-(3-chloro-4-cyclopropoxyphenyl)-1-hydroxy-3-(pyrrolidin-1-yl)propan-2-yl)-2,2-difluoro-2-(4-(5-fluoropyridin-2-yl)phenyl)acetamide] | – | A* (the compound had a % inhibition of a percent inhibition of greater than or equal to about 50%)
17 | O=C(N[C@H](CN1CCCC1)[C@H](O)c1ccc2c(c1)OCCO2)C(F)(F)c1ccc(-c2ccc(F)cn2)cc1 [Compound 179, N-((1R,2R)-1-(2,3-dihydrobenzo[b][1,4]dioxin-6-yl)-1-hydroxy-3-(pyrrolidin-1-yl)propan-2-yl)-2,2-difluoro-2-(4-(5-fluoropyridin-2-yl)phenyl)acetamide] | – | A* (the compound had a % inhibition of a percent inhibition of greater than or equal to about 50%)
18 | O=C(N[C@H](CN1CCCC1)[C@H](O)c1ccc2c(c1)OCCO2)C(F)(F)c1ccc(-c2ccc(F)cc2)s1 [Compound 180, N-((1R,2R)-1-(2,3-dihydrobenzo[b][1,4]dioxin-6-yl)-1-hydroxy-3-(pyrrolidin-1-yl)propan-2-yl)-2,2-difluoro-2-(5-(4-fluorophenyl)thiophen-2-yl)acetamide] | – | A* (the compound had a % inhibition of a percent inhibition of greater than or equal to about 50%)

From patent US10227323B2, “Glucosylceramide synthase inhibitors for the treatment of diseases” (BIOMARIN PHARMACEUTICAL INC., priority 2013, dated 2019)
